Measured values from patent US12304890B2, “R-type pyridyloxycarboxylic acid, salt and ester derivative thereof, and preparation method therefor, and herbicidal composition and application thereof” (Qingdao Kingagroot Chemical Compound Co., Ltd., priority 2018, dated 2025).

Key:
Type in all cases: in vivo
Echinochloa crusgalli = experiment: Post-emergence test experiment, Echinochloa crusgalli; conditions: for Echinochloa crusgalli, activity level (growth inhibition rate) / inhibition at 200 g/ha: 200 g a.i./ha, weed resistant to ALS inhibitor and ACCe herbicides; for Activity level (growth inhibition rate), Echinochloa crusgalli: 1000 g a.i./ha, 3 weeks in greenhouse, fresh weight inhibition
Outline: (§1)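 Pot-grown plants, sown 2 weeks earlier and at 2-3 leaves, received a foliar spray of compound in acetone/tween-80 with methyl oleate adjuvant. Effect was expressed as fresh weight inhibition rate after three further greenhouse weeks.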

Digitaria sanguinalis = experiment: Post-emergence test experiment, Digitaria sanguinalis; conditions: for Digitaria sanguinalis, activity level (growth inhibition rate) / inhibition at 200 g/ha: 200 g a.i./ha, weed resistant to cyhalofop-butyl; for Activity level (growth inhibition rate), Digitaria sanguinalis: 1000 g a.i./ha, 3 weeks in greenhouse, fresh weight inhibition
Outline: as §1

[1] = tested on: Semen Euphorbiae Lathyridis; experiment: Post-emergence test experiment, Semen Euphorbiae Lathyridis; conditions: for Semen Euphorbiae Lathyridis, activity level (growth inhibition rate) / inhibition at 200 g/ha: 200 g a.i./ha, weed resistant to cyhalofop-butyl
Experimental: (§2) The above described growth inhibition rate is fresh weight inhibition rate.
(§3) Post-emergence test experiment: Monocotyledonous and dicotyledonous weed seeds and main crop seeds (i. e. wheat, corn, rice, soybean, cotton, oilseed, millet and sorghum.) were put into a plastic pot loaded with soil. Then covered with 0.5-2 cm soil, the seeds were allowed to grow in good greenhouse environment. The test plants were treated at 2-3 leaf stage 2 weeks after sowing. The test compounds of the invention were dissolved with acetone respectively, then added with tween-80, and using 1.5 liters per hectare of an emulsible concentrate of methyl oleate as a synergist, and diluted by certain amount of water to certain concentration. The solution was sprayed to the plants with a sprayer. Then the plants were cultured for 3 weeks in the greenhouse, and the experiment result of weed controlling effect was listed in tables 4-5.

[2] = tested on: Monocotyledonous and dicotyledonous weed seeds and main crop seeds; experiment: Post-emergence test experiment, other weeds and crops (Table 4, 1000 g a.i./ha); conditions: 3 weeks in greenhouse, fresh weight inhibition
Outline: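 Weed and crop seeds (wheat, corn, rice, soybean, cotton, oilseed, millet, sorghum) sown in soil pots in a greenhouse and sprayed at 2-3 leaf stage, 2 weeks after sowing. Compound in acetone/tween-80 with methyl oleate concentrate (1.5 L/ha) as synergist. Effect recorded as fresh-weight growth inhibition rate.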

rice = experiment: Post-emergence test experiment, rice (crop selectivity); conditions: 3 weeks
Experimental: as §2, §3

[3] = Echinochloa crus-galli, 504 h, 3 weeks, read-out: Echinochloa crusgalli, activity level (growth inhibition rate)
[4] = Digitaria sanguinalis, 504 h, 3 weeks, read-out: Digitaria sanguinalis, activity level (growth inhibition rate)
[5] = 504 h, 3 weeks, read-out: Semen Euphorbiae Lathyridis, activity level (growth inhibition rate)

| Structure (SMILES) | Activity level (growth inhibition rate), Echinochloa crusgalli (Echinochloa crusgalli) | Activity level (growth inhibition rate), Digitaria sanguinalis (Digitaria sanguinalis) | Activity level (growth inhibition rate), Abutilon theophrasti Medic. [2] | Activity level (growth inhibition rate), Galium aparine [2] | Activity level (growth inhibition rate), Monochoria Vaginalis [2] | inhibition at 200 g/ha (Echinochloa crusgalli; [3]) | inhibition at 200 g/ha (Digitaria sanguinalis; [4]) | inhibition at 200 g/ha [1, 5] | further results |
| --- | --- | --- | --- | --- | --- | --- | --- | --- | --- |
| COC(=O)[C@@H](C)Oc1ncc(Cl)c(N)c1Cl [Compound 2-30] | 5 (Level 5: the growth inhibition rate is greater than 85%) | 5 (Level 5: the growth inhibition rate is greater than 85%) | 5 (Level 5: the growth inhibition rate is greater than 85%) | 5 (Level 5: the growth inhibition rate is greater than 85%) | 5 (Level 5: the growth inhibition rate is greater than 85%) |  |  |  | Echinochloa crusgalli, activity level (growth inhibition rate) (Echinochloa crusgalli; 3 weeks): 4 (Level 4: the growth inhibition rate is equal to or greater than 60% and less than 85%); Digitaria sanguinalis, activity level (growth inhibition rate) (Digitaria sanguinalis; 3 weeks): 5 (Level 5: the growth inhibition rate is greater than 85%); Semen Euphorbiae Lathyridis, activity level (growth inhibition rate) ([1]; 3 weeks): 4 (Level 4: the growth inhibition rate is equal to or greater than 60% and less than 85%) |
| CCSC(=O)[C@@H](C)Oc1nc(F)c(Cl)c(N)c1Cl [Compound 2-72] | 5 (Level 5: the growth inhibition rate is greater than 85%) | 5 (Level 5: the growth inhibition rate is greater than 85%) | 5 (Level 5: the growth inhibition rate is greater than 85%) | 5 (Level 5: the growth inhibition rate is greater than 85%) | 5 (Level 5: the growth inhibition rate is greater than 85%) |  |  |  | Echinochloa crusgalli, activity level (growth inhibition rate) (Echinochloa crusgalli; 3 weeks): 5 (Level 5: the growth inhibition rate is greater than 85%); rice, activity level (growth inhibition rate) (rice; 200 g a.i./ha): 0 (Level 0: the growth inhibition rate is less than 5%); Digitaria sanguinalis, activity level (growth inhibition rate) (Digitaria sanguinalis; 3 weeks): 5 (Level 5: the growth inhibition rate is greater than 85%); Semen Euphorbiae Lathyridis, activity level (growth inhibition rate) ([1]; 3 weeks): 5 (Level 5: the growth inhibition rate is greater than 85%) |
| CC(C)=NOC(=O)C(C)Oc1nc(F)c(Cl)c(N)c1Cl (stereo not shown) [Compound 2-292] | 5 (Level 5: the growth inhibition rate is greater than 85%) | 5 (Level 5: the growth inhibition rate is greater than 85%) | 5 (Level 5: the growth inhibition rate is greater than 85%) | 5 (Level 5: the growth inhibition rate is greater than 85%) | 5 (Level 5: the growth inhibition rate is greater than 85%) |  |  |  | Echinochloa crusgalli, activity level (growth inhibition rate) (Echinochloa crusgalli; 3 weeks): 5 (Level 5: the growth inhibition rate is greater than 85%); Digitaria sanguinalis, activity level (growth inhibition rate) (Digitaria sanguinalis; 3 weeks): 5 (Level 5: the growth inhibition rate is greater than 85%); Semen Euphorbiae Lathyridis, activity level (growth inhibition rate) ([1]; 3 weeks): 5 (Level 5: the growth inhibition rate is greater than 85%) |
| CC(C)=NOCCOC(=O)[C@@H](C)Oc1nc(C)c(Cl)c(N)c1Cl [Compound 2-386] | 5 (Level 5: the growth inhibition rate is greater than 85%) | 5 (Level 5: the growth inhibition rate is greater than 85%) | 5 (Level 5: the growth inhibition rate is greater than 85%) | 5 (Level 5: the growth inhibition rate is greater than 85%) | 5 (Level 5: the growth inhibition rate is greater than 85%) |  |  |  |  |
| COC(=O)[C@@H](C)Oc1nc(F)c(Cl)c(NCc2ccc(C(F)(F)F)o2)c1Cl [Compound 2-387] | 5 (Level 5: the growth inhibition rate is greater than 85%) | 5 (Level 5: the growth inhibition rate is greater than 85%) | 5 (Level 5: the growth inhibition rate is greater than 85%) | 5 (Level 5: the growth inhibition rate is greater than 85%) | 5 (Level 5: the growth inhibition rate is greater than 85%) |  |  |  |  |
| COc1cc(OC)nc(Oc2cccc(Oc3nc(OC)cc(OC)n3)c2C(=O)O)n1 [bispyribac-sodium, reference compound] |  |  |  |  |  |  |  |  | inhibition at 100 g/ha (Echinochloa crusgalli; Echinochloa crus-galli, 504 h, 100 g a.i./ha, 3 weeks, resistant weed, read-out: Echinochloa crusgalli, activity level (growth inhibition rate)): 5 to 20%; inhibition at 100 g/ha (Digitaria sanguinalis; Digitaria sanguinalis, 504 h, 100 g a.i./ha, 3 weeks, resistant weed, read-out: Digitaria sanguinalis, activity level (growth inhibition rate)): 5 to 20%; inhibition at 100 g/ha ([1]; 504 h, 100 g a.i./ha, 3 weeks, resistant weed, read-out: Semen Euphorbiae Lathyridis, activity level (growth inhibition rate)): < 5% |
| CCCCOC(=O)[C@@H](C)Oc1ccc(Oc2ccc(C#N)cc2F)cc1 [cyhalofop-butyl, reference compound] |  |  |  |  |  |  |  |  | inhibition at 300 g/ha (Echinochloa crusgalli; Echinochloa crus-galli, 504 h, read-out: Echinochloa crusgalli, activity level (growth inhibition rate)): 5 to 20%; rice, activity level (growth inhibition rate) (rice; 300 g a.i./ha): 0 (Level 0: the growth inhibition rate is less than 5%); inhibition at 300 g/ha (Digitaria sanguinalis; Digitaria sanguinalis, 504 h, read-out: Digitaria sanguinalis, activity level (growth inhibition rate)): 5 to 20%; inhibition at 300 g/ha ([1]; 504 h, read-out: Semen Euphorbiae Lathyridis, activity level (growth inhibition rate)): 5 to 20% |
| CC(Oc1nc(F)c(Cl)c(N)c1Cl)C(=O)OCC1CCCO1 (stereo not shown) [drawing 482, reference compound] |  |  |  |  |  | 40 to 60% |  |  | rice, activity level (growth inhibition rate) (rice; 200 g a.i./ha): 0 (Level 0: the growth inhibition rate is less than 5%) |
| CC(Oc1nc(Cl)c(Cl)c(N)c1Cl)C(=O)O (stereo not shown) [reference compound] |  |  |  |  |  | 20 to 40% | 40 to 60% | 40 to 60% |  |
| C[C@H](Oc1nc(Cl)c(Cl)c(N)c1Cl)C(=O)O [reference compound] |  |  |  |  |  | 5 to 20% | 5 to 20% | 5 to 20% |  |
| CC(Oc1nc(F)c(Cl)c(N)c1Cl)C(=O)O (stereo not shown) [reference compound] |  |  |  |  |  | 20 to 40% | 40 to 60% | 40 to 60% | rice, activity level (growth inhibition rate) (rice; 200 g a.i./ha): 2 (Level 2: the growth inhibition rate is equal to or greater than 20% and less than 40%) |
| C[C@H](Oc1nc(F)c(Cl)c(N)c1Cl)C(=O)O [reference compound] |  |  |  |  |  | 5 to 20% | 5 to 20% | 5 to 20% |  |
| COC(=O)C(C)Oc1ncc(Cl)c(N)c1Cl (stereo not shown) [reference compound] |  |  |  |  |  | 20 to 40% | 40 to 60% | 20 to 40% |  |
| COC(=O)[C@H](C)Oc1ncc(Cl)c(N)c1Cl [reference compound] |  |  |  |  |  | < 5% | < 5% | < 5% |  |
| CCOC(=O)C(C)Oc1nc(F)c(Cl)c(N)c1Cl (stereo not shown) [reference compound] |  |  |  |  |  | 20 to 40% | 20 to 40% | 40 to 60% | rice, activity level (growth inhibition rate) (rice; 200 g a.i./ha): 1 (Level 1: the growth inhibition rate is equal to or greater than 5% and less than 20%) |
| CCOC(=O)[C@H](C)Oc1nc(F)c(Cl)c(N)c1Cl [reference compound] |  |  |  |  |  | 5 to 20% | 5 to 20% | 5 to 20% |  |
